Experimental data taken from patent US20040019118A1, “NMDA receptor antagonists and their use in inhibiting abnormal hyperphosphorylation of microtubule associated protein tau” (priority 2002, published 2004).
Entries after “also recorded” stand apart in the source; their conditions may differ.

Columns and labels:
MAP2 = assay: Immunohistochemical staining of MAP2 in cultured hippocampal slices; type: cell-based, rat; conditions: 100 nM OA 24 h, then 10 μM Memantine 24 h
Protocol: Organotypic cultures of rat hippocampal slices were prepared from 20-30 day old Wistar rats and cultured with the interface method as described previously (Stoppini, et al. 1991; Bahr, et al. 1995; Zhongrin, et al. 2000). The rats were anesthetized with ketamine (100 mg/kg body weight) and decapitated and the hippocampi were dissected out and sliced into 400 um coronal sections by a McIllwain tissue chopper. Select slices with uninterrupted bright transparent neuronal layers were plated, 1-3 slices/filter, onto Millicell CM filters (Millipore, Bedford, Mass.). For the first 2 days in vitro (DIV) cultures were maintained in 25% horse serum, 50% Basal Media-Eagle (BEM), 25% Eagle's Balanced Salt Solution (EBSS), 25 mM HEPES, 1 mM glutamine, 28 mM glucose, pH 7.2, at 32° C. in a 5% CO2 humidified atmosphere. The slice cultures were then switched to 25% horse serum, 50% BEM and EBSS modified so that the potassium concentration was 2.66 mM, for another 5 DIV. […]
After different treatments some of the hippocampal slices were fixed in periodate/lysine/paraformaldehyde solution (Mclean, et al. 1974) at 33° C. for 5 h and then kept in 1% Triton-x-100 in PBS (pH 7.4) for 72 h at room temperature to improve the penetration of the antibodies. […] Peroxidase was detected using 0.05% diaminobenzidine (DAB) and H2O2 (0.01%) for 10 min.

MAPK = MAPK activity in extracts of treated hippocampal slice cultures; type: cell-based, rat; conditions: after 0.3 mM glutamate; 10 μM Memantine or 15 μM MK801
Protocol: The rats were anesthetized with ketamine (100 mg/kg body weight) and decapitated and the hippocampi were dissected out and sliced into 400 um coronal sections by a McIllwain tissue chopper. Select slices with uninterrupted bright transparent neuronal layers were plated, 1-3 slices/filter, onto Millicell CM filters (Millipore, Bedford, Mass.). […] After 7 DIV, the cultures were maintained in physiological potassium containing 5% horse serum medium at 35° C. for at least 20 days before any treatment was applied. When the slices were treated, the reagents were applied into the culture medium. At different time points, the slices collected with a brush were washed twice in homogenizing buffer (50 mM HEPES, pH 7.0, 10 mM β-merceptoethanol [BME], 1 mM EDTA, 1 mM EGTA, 0.1 mM phenylmethyl sulfonyl fluoride [PMSF], 2.0 mM benzamidine and 2.0 μg/ml each of aprotinin, leupeptin and pepstatin) and homogenized at 4° C. using a Teflon-glass homogenizer. The homogenate was then divided into two parts, one was centrifuged at 16000×g for 15 min and the supernatant was used to assay activities of PP-2A and PP-1. The rest of the homogenate was diluted 1:1 with a phosphatase inhibitor cocktail (20 mM β-glycerophosphate, 2 mM Na3VO4 and 100 mM NaF, pH 7.0) and either used for Western blots or centrifuged at 16000×g for 15 min and the resulting supernatant used to determine the kinase activities.
Immobilized protein G (Pierce, Rockford, Ill.), 20 μl, was mixed in 50 mM Tris, pH 7.4, 150 mM NACl, 10 mM NaF, 1.0 mM Na3VO4, 2.0 mM EGTA, 1 mM PMSF, 5 μg/ml leupeptin, 5 μg/ml aprotinin, 2 μg/ml pepstatin, 25 μg/ml phosphoramidon. After incubation at 4° C. overnight, the mixture was centrifuged and the beads were washed three times. The beads were then resuspended in 50 mM Tris, pH 7.4, containing 10 mM MgCl2. MAPK substrate peptide (UBI, Lake Placid, N.Y.) was employed for the MAPK assay. […]

PP-2A [1] = molecular target: T1, PP-2A (Rattus norvegicus, UniProt P63331); conditions: up to 5 μM OA, 3 h; cited from earlier work
T1 construct: the supernatant was used to assay activities of PP-2A and PP-1; from tissue; host or cells: organotypic culture of adult rat hippocampal slices; 16,000xg extract

PP-1 = conditions: 10 nM OA, 24 h; cited from earlier work
PP-2A [2] = molecular target: T2, PP-2A (Homo sapiens, UniProt P67775); conditions: read-out: in vitro IC50; cited from earlier work
PP-2A [3] = molecular target: T2, PP-2A; parameters: treatment of the SY5Y human neuroblastoma in culture with 10 nM OA for 24 h; host or cells: SY5Y human neuroblastoma cells (endogenous); conditions: 10 nM OA, 24 h; cited from earlier work

T2 sequence (P67775 whole entry): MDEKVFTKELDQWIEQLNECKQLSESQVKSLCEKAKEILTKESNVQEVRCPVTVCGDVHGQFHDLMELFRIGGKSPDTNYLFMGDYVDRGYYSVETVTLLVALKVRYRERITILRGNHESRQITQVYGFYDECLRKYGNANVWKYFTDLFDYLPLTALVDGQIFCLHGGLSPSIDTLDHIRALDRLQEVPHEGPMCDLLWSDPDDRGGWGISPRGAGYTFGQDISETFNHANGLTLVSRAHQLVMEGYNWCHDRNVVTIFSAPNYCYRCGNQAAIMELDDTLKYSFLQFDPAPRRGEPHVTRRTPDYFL
T1 sequence (P63331 whole entry): as the sequence (P67775 whole entry) above, with V5L counted along it

Structure (SMILES)	MAP2 immunostaining (MAP2)	effect on MAP kinase activity (MAPK)	maximal inhibition of PP-2A (PP-2A [1]) [%]	inhibition of PP-1 (PP-1) [%]	IC50 (PP-2A [2]) [nM]	inhibition of PP-2A (PP-2A [3])
CC12CC3CC(C)(C1)CC(N)(C3)C2 [Memantine, 1-amino-3,5-dimethyl adamantane]	beaded accumulation of MAP2 in dendrites was reduced and overall staining was increased; also recorded: a decrease in the degeneration and restoration of the staining of the neuropil; also recorded: partially reversed	no effect				
C=C1[C@@H](O)[C@@H]2O[C@]3(CC[C@H](/C=C/[C@@H](C)[C@@H]4CC(C)=C[C@@]5(O[C@H](C[C@@](C)(O)C(=O)O)CC[C@H]5O)O4)O3)CC[C@H]2O[C@@H]1[C@@H](O)C[C@H](C)[C@H]1O[C@@]2(CCCCO2)CC[C@H]1C [OA, Okadaic Acid]			~70	~65	~1	complete inhibition
